Key:
[1] = Competitive inhibition of rabbit liver guanase assessed as guanine hydrolysis rate by Lineweaver-Burk plot method; design: species or system Oryctolagus cuniculus
Guanine deaminase = biological target: T1, Guanine deaminase (Homo sapiens, UniProt Q9Y2T3); assay: Inhibition of guanase
T1 sequence (Q9Y2T3 whole entry): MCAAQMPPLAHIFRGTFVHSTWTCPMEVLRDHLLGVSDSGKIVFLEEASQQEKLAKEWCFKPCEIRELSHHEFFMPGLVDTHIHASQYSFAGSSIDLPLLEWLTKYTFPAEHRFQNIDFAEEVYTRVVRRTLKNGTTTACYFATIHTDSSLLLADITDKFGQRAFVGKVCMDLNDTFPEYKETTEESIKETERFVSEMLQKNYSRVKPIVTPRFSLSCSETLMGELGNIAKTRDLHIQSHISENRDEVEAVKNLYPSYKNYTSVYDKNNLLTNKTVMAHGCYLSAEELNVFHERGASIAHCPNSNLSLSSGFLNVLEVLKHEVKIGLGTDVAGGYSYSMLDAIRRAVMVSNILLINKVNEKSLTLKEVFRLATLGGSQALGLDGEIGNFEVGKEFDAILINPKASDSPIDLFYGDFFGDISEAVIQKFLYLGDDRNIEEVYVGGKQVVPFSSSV

Ki [1] [µM] | IC50 (Guanine deaminase) [µM] | SMILES
119 | – | O=C1N[C@@H](O)CNc2c1ncn2[C@@H]1O[C@H](CO)[C@@H](O)[C@H]1O
129 | – | O=C1N[C@H](O)CNc2c1ncn2[C@@H]1O[C@H](CO)[C@@H](O)[C@H]1O
2.5 | 5 | O=C1NC(O)CNc2nc[nH]c21 (racemic) [AZEPINOMYCIN]

Source: ChEMBL document CHEMBL2202998, “Investigations into specificity of azepinomycin for inhibition of guanase: discrimination between the natural heterocyclic inhibitor and its synthetic nucleoside analogues” (Bioorg Med Chem Lett, 2012)
